Here are results for 14 molecules from PubChem BioAssay (NCI).

The structures appear in SMILES notation.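 Results reflect a 48-hour exposure of cells in 96-well plates to compound at five concentrations. At the TGI there is no net growth.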

Some test systems named below: A549 NSCLC; DU-145 prostate; HCC-2998 colon; HS 578T breast; M14 melanoma; NCI-H522 lung; OVCAR-8 ovarian; SF-295 CNS; SK-OV-3 ovarian; UACC-257 melanoma.
Common to all, as to test: NCI-60 cell line screen, 48 h

Take `[N-]=[N+]=C1CNC(=O)NC1=O`: the TGI in the assay on A549 NSCLC, with DU-145 prostate, in the assay with HCC-2998 colon, in the assay with HS 578T breast, in the assay on M14 melanoma and in the assay with NCI-H522 lung was > 100 µM throughout. Further, the TGI in the assay on OVCAR-8 ovarian, with SF-295 CNS, in the assay with SK-OV-3 ovarian and in the assay with UACC-257 melanoma was > 100 µM throughout.

Regarding `Cc1ccc(S(=O)(=Nc2ccccc2)C(C(C)C)C(C)(C)Cl)cc1` (stereo not given), the TGI with A549 NSCLC, in the assay with DU-145 prostate, with HCC-2998 colon, with HS 578T breast, in the assay on M14 melanoma and in the assay on NCI-H522 lung was > 50 µM each time. For the same molecule, the TGI with OVCAR-8 ovarian, in the assay on SF-295 CNS, in the assay with SK-OV-3 ovarian and in the assay on UACC-257 melanoma was > 50 µM each time.

As to `c1ccc(C(=NNc2nc3ccccc3[nH]2)c2ccccn2)nc1`, the TGI is > 89.9 µM in the assay with A549 NSCLC; > 100 µM in the assay with DU-145 prostate; 28.6 µM in the assay with HCC-2998 colon; > 100 µM with HS 578T breast; 1.84 µM in the assay on M14 melanoma; 0.089 µM with NCI-H522 lung. The TGI in the assay on OVCAR-8 ovarian was > 33.2 µM; in the assay on SF-295 CNS, 35.4 µM; in the assay on SK-OV-3 ovarian it was 0.828 µM; in the assay with UACC-257 melanoma, 1.92 µM.

In the case of `O=C(c1ccc(Cl)cc1)N(Cc1cccnc1)C(=S)N(Cc1cccnc1)C(=O)c1ccc(Cl)cc1`, the TGI was > 100 µM in the assay on A549 NSCLC; > 100 µM in the assay on DU-145 prostate; 61.3 µM in the assay with HCC-2998 colon; > 100 µM with HS 578T breast; 59.7 µM in the assay on M14 melanoma; 69.1 µM with NCI-H522 lung. For the same molecule, the TGI in the assay with OVCAR-8 ovarian was 85.3 µM; in the assay with SF-295 CNS, > 100 µM; in the assay with SK-OV-3 ovarian it was > 100 µM; in the assay with UACC-257 melanoma, > 100 µM.

As to `O=C(CCc1cc(O)cc(O)c1)NCCc1ccc(O)c(O)c1`, the TGI in the assay on A549 NSCLC, in the assay with DU-145 prostate, in the assay with HCC-2998 colon, with HS 578T breast, with M14 melanoma and in the assay on NCI-H522 lung was > 100 µM in each case. Moreover, the TGI in the assay with OVCAR-8 ovarian, with SF-295 CNS, in the assay on SK-OV-3 ovarian and in the assay on UACC-257 melanoma was > 100 µM in each case.

As for `O=C(NN=C1CCCCC1)Nc1ccccc1Cl`, the TGI in the assay with A549 NSCLC, in the assay on DU-145 prostate, in the assay on HCC-2998 colon, with HS 578T breast, in the assay with M14 melanoma and with NCI-H522 lung was > 100 µM in each case. Besides, the TGI with OVCAR-8 ovarian, in the assay on SF-295 CNS, with SK-OV-3 ovarian and in the assay with UACC-257 melanoma was > 100 µM each time.

Regarding `Cc1cccc2c(N)c3cccc(C(=O)NCC[N+](C)(C)Cc4sc(N5CCOCC5)nc4[N+](=O)[O-])c3nc12`, the TGI in the assay on A549 NSCLC is 2.55 µM; in the assay with DU-145 prostate, > 100 µM; in the assay with HCC-2998 colon it was 3.41 µM; in the assay with HS 578T breast, 28.5 µM; in the assay with M14 melanoma, 15 µM; in the assay with NCI-H522 lung, 4.54 µM. Moreover, the TGI in the assay on OVCAR-8 ovarian is 17.4 µM; with SF-295 CNS it was 14.3 µM; in the assay with SK-OV-3 ovarian, 6.19 µM; in the assay on UACC-257 melanoma, 43 µM.

As for `COc1ccc(N2CCN(c3ccc4c(c3)NCC(=O)N4)CC2)cc1`, the TGI with A549 NSCLC was > 100 µM; in the assay on DU-145 prostate it was > 100 µM; in the assay with HCC-2998 colon it was > 100 µM; with HS 578T breast, 67.1 µM; with M14 melanoma, > 100 µM; in the assay with NCI-H522 lung, 30.8 µM. Besides, the TGI in the assay with OVCAR-8 ovarian, with SF-295 CNS, in the assay with SK-OV-3 ovarian and in the assay on UACC-257 melanoma was > 100 µM throughout.

Turning to `c1ccc(C(CCN2CCCC2)c2ccccn2)cc1` (stereo not given), the TGI in the assay on A549 NSCLC, in the assay with DU-145 prostate, in the assay with HCC-2998 colon, in the assay on HS 578T breast, in the assay on M14 melanoma and with NCI-H522 lung was > 100 µM in each case. In addition, the TGI with OVCAR-8 ovarian, in the assay with SF-295 CNS, with SK-OV-3 ovarian and with UACC-257 melanoma was > 100 µM throughout.

Regarding `Clc1ccc(OCC2NC3C=CC32)cn1` (stereo not given), the TGI with A549 NSCLC, with DU-145 prostate, with HCC-2998 colon, in the assay on HS 578T breast, in the assay with M14 melanoma and with NCI-H522 lung was > 100 µM each time. The TGI in the assay with OVCAR-8 ovarian, in the assay with SF-295 CNS, in the assay on SK-OV-3 ovarian and in the assay with UACC-257 melanoma was > 100 µM in each case.

For the molecule `O=c1c2c([nH]c3cc4c(cc13)OCO4)-c1ccccc1CCC2`, the TGI in the assay on A549 NSCLC, with DU-145 prostate, with HCC-2998 colon, in the assay on HS 578T breast, in the assay on M14 melanoma and with NCI-H522 lung was > 50 µM in each case. For the same molecule, the TGI in the assay on OVCAR-8 ovarian, with SF-295 CNS, in the assay with SK-OV-3 ovarian and in the assay with UACC-257 melanoma was > 50 µM throughout.

On to `CC(O)(c1ccccc1)c1nccc2ccccc12` (stereo not given), for which the TGI in the assay with A549 NSCLC, in the assay with DU-145 prostate, with HCC-2998 colon, in the assay on HS 578T breast, in the assay with M14 melanoma and in the assay with NCI-H522 lung was > 100 µM each time. Further, the TGI with OVCAR-8 ovarian, in the assay with SF-295 CNS, with SK-OV-3 ovarian and in the assay on UACC-257 melanoma was > 100 µM in each case.

Take `Cc1ccccc1NC(=S)N/N=C(/c1ccccc1)c1ccccn1`: the TGI in the assay on A549 NSCLC was 11.8 µM; with DU-145 prostate it was 18.3 µM; in the assay on HCC-2998 colon, 14.3 µM; with HS 578T breast, 31.2 µM; in the assay on M14 melanoma, 1.91 µM; in the assay on NCI-H522 lung, 3.4 µM. In addition, the TGI was 11.8 µM in the assay with OVCAR-8 ovarian, 8.7 µM in the assay with SF-295 CNS, 14.2 µM in the assay with SK-OV-3 ovarian and 0.357 µM in the assay on UACC-257 melanoma.

Take `O=C1c2ccccc2C(=O)N1C(=S)c1ccccc1`: the TGI in the assay on A549 NSCLC, with DU-145 prostate, in the assay on HCC-2998 colon, in the assay on HS 578T breast, in the assay with M14 melanoma and with NCI-H522 lung was > 100 µM each time. In addition, the TGI with OVCAR-8 ovarian, in the assay on SF-295 CNS, in the assay with SK-OV-3 ovarian and with UACC-257 melanoma was > 100 µM each time.
